Measured values published in paper PMC11537999, “Identification of human pregnane X receptor antagonists utilizing a high-throughput screening platform” (Frontiers in Pharmacology, 2024).

target: T1, hPXR (Homo sapiens, UniProt O75469); assay: PXR luciferase reporter gene assay (qHTS antagonist mode, rifampicin co-treatment) in HepG2-CYP3A4-hPXR cells; format: cell-based; conditions: 2 μM rifampicin, used as treatment concentration in HepaRG cells
T1 construct: expressed in transfected cells; provided by Dr. Taosheng Chen, St. Jude
T1 sequence (O75469 1-434): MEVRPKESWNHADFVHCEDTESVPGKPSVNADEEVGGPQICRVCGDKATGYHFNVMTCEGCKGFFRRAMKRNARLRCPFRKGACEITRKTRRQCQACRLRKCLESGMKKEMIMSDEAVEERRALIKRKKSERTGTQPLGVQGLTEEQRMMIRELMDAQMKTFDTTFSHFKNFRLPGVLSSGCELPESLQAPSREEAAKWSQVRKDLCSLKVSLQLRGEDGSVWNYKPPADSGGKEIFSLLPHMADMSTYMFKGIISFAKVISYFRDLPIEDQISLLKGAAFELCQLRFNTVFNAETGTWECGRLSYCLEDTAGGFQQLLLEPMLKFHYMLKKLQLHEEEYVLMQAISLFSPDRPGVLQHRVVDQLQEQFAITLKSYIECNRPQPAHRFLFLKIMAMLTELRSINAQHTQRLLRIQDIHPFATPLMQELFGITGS
Experimental: HepG2 cells stably transfected with a CYP3A4-luc promoter construct and hPXR expression plasmid were provided by Dr. Taosheng Chen (Department of Chemical Biology and Therapeutics, St. Jude Children’s Research Hospital) ([Lin et al., 2008]). Cells were thawed in EMEM (ATCC, Rockville, Maryland), supplemented with 10% Hyclone FBS (GE Healthcare Life Sciences, Logan, Utah) and 100 U/mL of Penicillin and 100 μg/mL of Streptomycin (Invitrogen, Carlsbad, CA) and kept in an incubator at 37°C and 5% CO2. To culture these HepG2-CYP3A4-hPXR cells, 500 μg/mL of Geneticin (GIBCO, Gaithersburg, MD) was added to the thawing media.
(§1) HepG2-CYP3A4-hPXR cells were dispensed into tissue culture treated 1536-well white assay plates (Greiner Bio-One North America, Monroe, NC) using a Multidrop Combi (Thermo Fisher Scientific Inc., Waltham, Massachusetts) at 2,500 cells/4 µL/well. The cell suspension was prepared using new assay media, which contained phenol red-free DMEM (GIBCO), 5% charcoal/dextran-treated FBS (Invitrogen), 1 mM sodium pyruvate (Invitrogen), 2 mM L-Glutamine (Invitrogen), and 100 U/mL of Penicillin and 100 μg/mL of Streptomycin (Invitrogen). All plates were then incubated for 4 h in a 37°C and 5% CO2 incubator. […] In the primary screen, each compound was tested at 7 concentrations ranging from 46 μM to 1.5 nM. 1 μL of rifampicin, a known PXR agonist, was also co-treated in each well, generating a final concentration of 2 μM, using a Flying Reagent Dispenser (Aurora Discovery, Carlsbad, California). All assay plates were placed in an incubator at 37°C with 5% CO2 for 23 h. Following the incubation period, 1 µL of CellTiter-Fluor reagent (Promega, Madison, Wisconsin) was added to each well and all assay plates were placed back into the incubator set at 37°C and 5% CO2 for 1 h. Fluorescence intensity at 540 nm was measured following excitation at 405 nm using a ViewLux plate reader (Perkin Elmer, Shelton, Connecticut), in order to assess cell viability following treatment. Directly after the fluorescent read, 4 μL of ONE-Glo Luciferase reagent (Promega, Madison, Wisconsin) was added to each well using a Flying Reagent Dispenser, and plates were left to sit at room temperature for 30 min. The luminescence of each plate was then measured using the ViewLux plate reader and data were expressed as relative luminescence units. Gross assay performance was assessed by calculating quality metrics, such as coefficient of variance (CV), signal-to-background ratio (S/B), and Z′ factor, a measure of statistical effect size frequently used to judge whether an assay can be scaled up to a large high-throughput screen ([Zhang et al., 1999]).
Data analysis was completed using a previously described protocol ([Huang et al., 2016]). […] Normalized percent activity for all test compounds was determined using the following equation: % activity = [(V compound - V DMSO)/(V DMSO–V pos)] × 100, where V compound denotes the compound well values, V pos denotes the median value of the positive control wells, and V DMSO denotes the median value of the DMSO-only wells. Following normalization, data points were corrected using DMSO-only plates included at the beginning and end of the compound plate stack using an in-house pattern correction algorithm in order to remove background patterns, as well as other small abnormalities within the dataset ([Southall et al., 2009]). […] Efficacy is then [a inf - a 0 ]. a=a0+ainf−a0 c^n/k^n+c^n
Curve class was further converted to curve rank by combining each class with efficacy, such that good quality, efficacious curves are assigned large absolute curve rank values. […] The activity outcome was based on the PXR antagonist readout activity and a cell viability counter screen.

| SMILES | IC70 values from the original NPACT screen [nM] |
| --- | --- |
| CN(C)c1cc2c(cc1Sc1nc3c(N)nccc3n1CCNCC(C)(C)C)OCO2 [CUDC-305] | 250 |
| CCN(CC)C(=O)C(c1ccccc1)N1CCN(c2ccc(NC(=O)c3ccccc3-c3cccnc3)cc2F)CC1 (stereo not shown) [JNJ-31020028] | 10000 |
| CC(C)(C)NC(=O)[C@@H](c1cccnc1)N(C(=O)c1ccco1)c1ccc(C(C)(C)C)cc1 [ML 188] | 1000 |
| CC1CCN(c2cc(NC(=O)c3ccccc3)ncn2)CC1 [ML 340] | 3000 |
| C=C1C(=O)O[C@@H]2[C@H]1CC[C@H](C)[C@]1(CCC(=O)O1)C2(C)O (stereo partly shown) [NCGC00380135-02] | 7000 |
| COC(=O)C[C@H]1C(C)(C)[C@H](OC(=O)c2ccccc2)C2CC3=C4CC(=O)O[C@@H](c5ccoc5)[C@]4(C)CCC3[C@@]1(C)C2=O (stereo partly shown) [NCGC00384964-01] | 15000 |
| CC(C)(O)C1Cc2c(ccc(C(=O)CCc3ccccc3)c2O)O1 (stereo not shown) [NCGC00385629-01] | 800 |
| CC(C)C[C@@H](C(=O)N[C@@H](Cc1ccc(OCc2ccccc2)cc1)C(=O)NC(C)(C)C)N(C)Cc1ccc(C(C)(C)C)cc1 [PD 173212] | 3000 |
| CC(C)NCCCn1c(Sc2cc3c(cc2I)OCO3)nc2c(N)ncnc21 [PU-H71] | 500 |
| Cc1cccc2c1CC[C@H](CN1CCC(c3c(Cl)cccc3Cl)CC1)C[C@@H]2O [SB-612111] | 8000 |
| Cc1ccccc1C#Cc1ccc(CCC(=O)O)cc1 [TUG-424] | 3000 |
| CCCCCOc1cc2c(cc1-c1cc(/C=C/C(=O)O)ccc1O)C(C)(C)CCC2(C)C [UVI 3003] | 800 |
| CC[C@@H](C)Nc1cc(C(=O)N[C@H]2C[C@H]3CC[C@@H](C2)N3c2ccc(C(=O)C3CC3)cn2)c(C)cc1C(N)=O [XL-888] | 500 |
| COC(=O)C1=C(C)NC(COC(N)=O)=C(C(=O)OC(C)C)C1c1cccc(Cl)c1Cl (stereo not shown) [lemildipine] | 600 |
| c1ccc2c(Oc3nc(Nc4ccc(N5CCOCC5)cc4)c4ncn(C5CCCCC5)c4n3)cccc2c1 [purmorpharmine] | 10000 |

target: T1, hPXR; assay: Pharmacological inhibition (IC50 shift) assay with varying rifampicin in HepG2-CYP3A4-hPXR cells; format: cell-based; conditions: co-treated with 2 µM versus 10 µM rifampicin
Experimental: as §1
Each curve was co-treated with 5 μM RIF, 7.5 μM RIF, or 10 μM RIF (a well-known PXR agonist) to determine pharmacological activity. […] Each curve was generated from a combination of all data points together.

| SMILES | decrease in potency |
| --- | --- |
| COc1ccc(OC)c(-n2nnc(S(=O)(=O)c3ccc(C(C)(C)C)cc3)c2C)c1 [SPA70, 4-(4-tert-Butylphenylsulfonyl)-1-(2,5-dimethoxyphenyl)-5-methyl-1H-1,2,3-triazole] | more than 2 fold |

system: CYP3A4 mRNA expression; assay: CYP3A4 mRNA expression by qRT-PCR in HepaRG cells treated with compound alone; format: cell-based, human; conditions: 24 h, compound at its IC70 concentration, vs DMSO
Experimental: Fully differentiated NoSpin™ HepaRG™ cells (Lonza, Walkersville, Maryland) were seeded into 12-well collagen-coated plates (Corning) at a density of 8 × 10^5 cells/well using Williams’ E medium (ThermoFisher) supplemented with HepaRG™ thawing and plating medium supplement (Lonza), 25 U/mL penicillin, and 25 μg/mL streptomycin (Invitrogen). The cells were then placed into a 37°C and 5% CO2 incubator for 3 days including a media change before treatment. Cells were then treated with the vehicle control (final concentration of 0.1% DMSO), the positive controls, or test compounds for 24 h before harvesting.
Total RNA was extracted from the cell lysate using an RNeasy Mini kit (Qiagen) according to the manufacturer’s instructions. RNA was reverse transcribed to cDNA using a High-Capacity RNA-to-cDNA kit (Applied Biosystems). CYP3A4 and CYP2B6 mRNA expression were both measured and normalized to the glyceraldehyde-3-phosphate dehydrogenase (GAPDH) housekeeping gene. Real-time PCR was completed using a QuantStudio Real-Time PCR system (Applied Biosystems) with TaqMan probes (CYP3A4 Assay ID: Hs00604506_m1, CYP2B6 Assay ID: Hs04183483_g1, GAPDH Assay ID: Hs99999905_m1, ThermoFisher Scientific, Waltham, MA). Following amplification, induction values were calculated using the equation: Fold = 2^−ΔΔCt, where ΔCt represents the difference in number of cycles required to reach the Ct threshold between CYP3A4 or CYP2B6 and GAPDH, and ΔΔCt represents the relative change in these differences between the control (DMSO) and treatment groups. Experimental data are expressed as a mean of triplicate values ±SD. Statistical analysis was performed using one-way analysis of variance with post hoc Dunnett’s analysis. The statistical significance values were set at p < 0.05 (*), p < 0.01 (**), and p < 0.001 (***).
To overcome the previous screening limitations, we used this more physiologically relevant cell line, HepaRG cells, to run follow-up studies with the PXR antagonists identified from the primary screen which used immortalized cell lines without a metabolic component. Using HepaRG cells, the 20 potential PXR antagonists were treated for 24 h and harvested for mRNA (Supplementary Figure S1).
FIGURE 3 HepaRG cells were treated with the top 20 most promising PXR antagonists identified from the high-throughput screen. […] The concentrations for the test compounds were the IC70 values from the original NPACT screen. Real-time PCR was used to analyze the mRNA expression of CYP3A4. Each bar represents the mean ± SD in triplicate. *, p < 0.05; **, p < 0.01.

| SMILES | inhibition of CYP3A4 mRNA expression (in words) |
| --- | --- |
| CCN(CC)C(=O)C(c1ccccc1)N1CCN(c2ccc(NC(=O)c3ccccc3-c3cccnc3)cc2F)CC1 (stereo not shown) [JNJ-31020028] | significantly inhibited CYP3A4 mRNA expression |
| CC(C)NCCCn1c(Sc2cc3c(cc2I)OCO3)nc2c(N)ncnc21 [PU-H71] | significantly inhibited CYP3A4 mRNA expression |
| CCCCCOc1cc2c(cc1-c1cc(/C=C/C(=O)O)ccc1O)C(C)(C)CCC2(C)C [UVI 3003] | generated CYP3A4 inhibition but not to a significant degree |
